Measurements taken from patent US8178506B2, “Oligomeric compounds and compositions for use in modulation of small non-coding RNAs” (Regulus Therapeutics Inc., priority 2003, dated 2012).
In the oligonucleotide strings, read from the 5' end, every base follows the letter of its sugar. An asterisk marks phosphorothioate; unmarked linkages are phosphodiester. Other units and linkages are bracketed, terminal groups are in braces. A string of capitals states the bases alone. e = 2'-O-(2-methoxyethyl) (MOE); [5mC] = 5-methylcytosine; d = 2'-deoxy (DNA)

Experiments:
T47D cells = assay: Cell cycle assay in T47D cells; format: cell-based, human; conditions: 150 nM, 48 hours, relative to untreated control
[1] = system: preadipocytes / differentiating adipocytes; assay: Adipocyte differentiation assay, markers taken together; format: cell-based, human; conditions: for expression levels of markers of adipocyte differentiation (TG, leptin, aP2, HSL, Glut4, PPARγ): preadipocytes, 250 nM, day nine post-transfection, relative to ISIS-29848; for expression of the adipocyte differentiation markers, compounds targeting mir-143 miRNA or pri-miRNA compared: preadipocytes (Table 20)

Substance	% cells in cell cycle phase G1 (T47D cells) [%]	% cells in cell cycle phase G2/M (T47D cells) [%]	% cells in cell cycle phase S (T47D cells) [%]	% cells in cell cycle phase aneuploid (T47D cells) [%]	% cells in cell cycle phase subG1 (T47D cells) [%]	expression levels of markers of adipocyte differentiation (TG, leptin, aP2, HSL, Glut4, PPARγ) [1]	expression of all five markers of differentiation, dose response ([1]; differentiating adipocytes, 50, 100, 200 and 300 nM, 24 hours)	expression of the adipocyte differentiation markers, compounds targeting mir-143 miRNA or pri-miRNA compared [1]	expression of the adipocyte differentiation markers, compounds targeting mir-143 miRNA or pri-miRNA compared ([1]; listed as ISIS 340972)
327902 (antisense eG*eG*e[5mC]*eT*eG*eT*e[5mC]*eA*eA*eT*eT*e[5mC]*eA*eT*eA*eG*eG*eT*e[5mC]*eA*eG) [compound 327902]	75	116	120	162	102	–	–	–	–
327905 (antisense e[5mC]*eA*eG*eA*e[5mC]*eT*e[5mC]*e[5mC]*eG*eG*eT*eG*eG*eA*eA*eT*eG*eA*eA*eG*eG*eA) [compound 327905]	97	103	101	164	81	–	–	–	–
328759 (antisense eG*eA*eG*eG*eG*dA*dT*dT*dG*dT*dA*dT*dG*dA*dA*e[5mC]*eA*eT*e[5mC]*eT) [compound 328759]	86	122	87	223	123	–	–	–	–
ACTTTCGGTTATCTAGCTTTA [ISIS 327892] (chemistry not given here) [uniform 2′-MOE PS; targets mir-131-2/mir-9]	–	–	–	–	–	significantly reduce the expression levels of 5 of 6 markers of adipocyte differentiation	–	–	–
TGAGCTACAGTGCTTCATCTCA [ISIS 327901] (chemistry not given here) [uniform 2′-MOE PS; targets mir-143]	–	–	–	–	–	significantly reduce the expression levels of 5 of 6 markers of adipocyte differentiation	dose responsive reduction of expression of all five markers of differentiation	more effective	–
TGAGCTACAGTGCTTCATCTCA [ISIS 340927] (chemistry not given here) [5-10-7 2′-MOE gapmer PS; targets mature mir-143]	–	–	–	–	–	–	–	–	reduced expression of the adipocyte differentiation markers
